The molecules below were run against T1, KATP channels (Homo sapiens, UniProt O60706+Q14654) (assay: Potassium Channel Assay (FLIPR membrane potential, TE671 cells)). Conditions: TE671 human medulloblastoma cells, Membrane Potential Assay Dye, room temperature, hyperpolarization from KATP channel opening.
T1 construct: TE671 human medulloblastoma cells were obtained from ATCC; host or cells: TE671 human medulloblastoma cells
T1 sequence (O60706 1-1549 isoform O60706-2): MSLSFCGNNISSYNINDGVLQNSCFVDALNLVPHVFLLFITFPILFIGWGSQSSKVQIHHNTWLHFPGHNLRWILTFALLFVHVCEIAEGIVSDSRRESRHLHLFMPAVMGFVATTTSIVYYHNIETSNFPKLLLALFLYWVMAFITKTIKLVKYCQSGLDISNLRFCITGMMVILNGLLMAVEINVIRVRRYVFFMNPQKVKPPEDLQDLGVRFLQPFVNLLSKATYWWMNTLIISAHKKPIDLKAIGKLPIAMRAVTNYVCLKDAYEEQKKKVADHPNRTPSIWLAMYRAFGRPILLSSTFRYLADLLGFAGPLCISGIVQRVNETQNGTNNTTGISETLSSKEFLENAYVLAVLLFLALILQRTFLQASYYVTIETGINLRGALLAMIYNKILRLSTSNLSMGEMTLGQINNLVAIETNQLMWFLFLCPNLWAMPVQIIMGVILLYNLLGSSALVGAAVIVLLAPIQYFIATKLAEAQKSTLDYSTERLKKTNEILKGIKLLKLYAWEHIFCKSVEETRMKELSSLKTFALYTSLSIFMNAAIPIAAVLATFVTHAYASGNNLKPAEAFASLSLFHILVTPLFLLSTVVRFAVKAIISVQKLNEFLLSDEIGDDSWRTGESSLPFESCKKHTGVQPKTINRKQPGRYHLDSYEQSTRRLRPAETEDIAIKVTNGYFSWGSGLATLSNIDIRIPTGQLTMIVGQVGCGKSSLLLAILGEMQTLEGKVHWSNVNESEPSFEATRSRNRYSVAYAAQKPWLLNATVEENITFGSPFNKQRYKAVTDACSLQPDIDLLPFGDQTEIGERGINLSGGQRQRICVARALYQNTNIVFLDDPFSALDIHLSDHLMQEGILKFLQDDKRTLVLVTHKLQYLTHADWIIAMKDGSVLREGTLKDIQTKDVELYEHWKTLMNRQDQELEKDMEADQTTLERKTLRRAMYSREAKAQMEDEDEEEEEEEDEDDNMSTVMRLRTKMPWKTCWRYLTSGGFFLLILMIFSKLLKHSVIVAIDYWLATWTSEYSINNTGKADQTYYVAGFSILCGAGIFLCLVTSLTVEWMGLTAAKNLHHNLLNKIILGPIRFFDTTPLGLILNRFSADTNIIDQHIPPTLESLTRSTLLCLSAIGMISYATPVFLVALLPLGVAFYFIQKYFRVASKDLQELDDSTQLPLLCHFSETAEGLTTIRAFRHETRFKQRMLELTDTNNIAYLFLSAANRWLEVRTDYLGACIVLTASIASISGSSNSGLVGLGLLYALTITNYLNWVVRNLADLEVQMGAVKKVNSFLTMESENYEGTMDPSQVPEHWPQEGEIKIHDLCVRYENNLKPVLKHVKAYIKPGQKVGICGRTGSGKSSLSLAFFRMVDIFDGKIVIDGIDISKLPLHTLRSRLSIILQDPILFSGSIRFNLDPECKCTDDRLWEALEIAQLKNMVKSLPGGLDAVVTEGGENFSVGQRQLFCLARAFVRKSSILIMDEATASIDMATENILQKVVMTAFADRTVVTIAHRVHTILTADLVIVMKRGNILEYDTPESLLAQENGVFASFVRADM
T1 sequence (Q14654 whole entry): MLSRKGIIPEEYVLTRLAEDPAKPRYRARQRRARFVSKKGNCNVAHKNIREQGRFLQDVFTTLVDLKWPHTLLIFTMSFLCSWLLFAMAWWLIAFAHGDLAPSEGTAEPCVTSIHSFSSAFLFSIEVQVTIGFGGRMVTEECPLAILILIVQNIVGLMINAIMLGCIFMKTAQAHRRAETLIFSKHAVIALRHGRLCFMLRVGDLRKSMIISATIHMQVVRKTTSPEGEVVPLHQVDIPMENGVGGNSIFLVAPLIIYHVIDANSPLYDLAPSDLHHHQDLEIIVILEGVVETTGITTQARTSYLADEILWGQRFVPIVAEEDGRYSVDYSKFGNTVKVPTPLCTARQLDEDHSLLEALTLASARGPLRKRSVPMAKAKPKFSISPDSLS
Assay type: cell-based
Procedure: TE671 human medulloblastoma cells were obtained from ATCC and grown in Dulbecco's modified Eagle's medium (DMEM) supplemented with 10% fetal bovine serum, 100 U/ml penicillin and 100 U/ml streptomycine.
The day before testing, the cells were plated in black 96-well plates at 50K/well. On the day of testing, the growth media was removed, then 100 μl of FLIPR buffer (20 mM HEPES, 120 mM NaCl, 2 mM KCl, 2 mM CaCl2, 1 mM MgCl2, 5 mM Glucose) and 100 μl of Membrane Potential Assay Dye (Molecular Devices) dissolved in FLIPR buffer were added to each well. The cells were incubated at room temperature for 15 to 30 min.
The effect of test compounds on KATP channels were evaluated on a fluorometric imaging plate reader (FLIPR, Molecular Devices) at room temperature. After a baseline period, 50 μl of 5× stock solution of test compound prepared in FLIPR buffer was added and fluorescent change was monitored for 3 minutes. After this reading, glyburide, a KATP channel blocker, was added to a final concentration of 5 μM to check the specificity of the test compound as a KATP channel openers. Hyperpolarization resulting from KATP channel opening was observed as a decrease in fluorescent intensity.
Representative compounds of the present invention were tested according to the procedure described above, with results as listed in Table 7, below.
`CC1(C)Oc2ccc(S(=O)(=O)c3ccccc3)cc2[C@@H](Nc2noc3cc(Cl)ccc23)[C@@H]1O` [Compound 73, (3S,4R)-6-Benzenesulfonyl-4R-(6-chloro-benzo[d]isoxazol-3-ylamino)-2,2-dimethyl-chroman-3S-ol] was tested, and the EC50 was 5.19 µM.
In the case of `N#Cc1ccc2c(c1)[C@@H](NC(=O)c1cccc(Cl)c1)[C@H](OC(=O)c1cccc(Cl)c1)C1(CCS(=O)(=O)CC1)O2` [Compound 202, (3S,4R)-3-Chloro-benzoic acid 4-(3-chloro-benzoylamino)-6-cyano-2,2-(tetrahydro-4-sulfonylpyranyl)-chroman-3-yl ester], the EC50 is reported as over 30 µM.
Molecule `CC1(C)Oc2ccc(C#N)cc2[C@@H](Sc2nc3cc(Cl)ccc3[nH]2)C1O` (stereo in doubt) [Compound 29, (3S,4R)-4-(5-Chloro-1H-benzoimidazol-2-ylsulfanyl)-3-hydroxy-2,2-dimethyl-chroman-6-carbonitrile] has an EC50 of 6.18 µM.
In the case of `CC1(C)Oc2ccc(C#N)cc2[C@@H](N2C(=O)C(=O)c3cc(Cl)ccc32)[C@@H]1O` [Compound 24, (3S,4R)-4-(5-Chloro-2,3-dioxo-2,3-dihydro-indol-1-yl)-3-hydroxy-2,2-dimethyl-chroman-6-carbonitrile], the EC50 is reported as 3.64 µM.
`CCN(CC)S(=O)(=O)c1ccc2c(c1)[C@@H](n1oc3ccc(Cl)cc3c1=O)[C@H](O)C(C)(C)O2` [Compound 86, 4R-(5-Chloro-3-oxo-3H-benzo[d]isoxazol-2-yl)-3S-hydroxy-2,2-dimethyl-chroman-6-sulfonic acid diethylamide] showed an EC50 of over 30 µM.
`CC1(C)Oc2ccc(C#N)cc2[C@@H](N2C(=O)c3ccncc3C2=O)[C@@H]1O` [Compound 26, 4R-(1,3-Dioxo-1,3-dihydro-pyrrolo[3,4-c]pyridin-2-yl)-3S-hydroxy-2,2-dimethyl-chroman-6-carbonitrile] gave an EC50 of 6.04 µM.
`CC1(C)Oc2ccc(C#N)cc2[C@@H](S(=O)(=O)c2ncc[nH]2)C1O` (stereo in doubt) [Compound 71, (3S,4R)-3-Hydroxy-4-(1H-imidazole-2-sulfonyl)-2,2-dimethyl-chroman-6-carbonitrile] was tested, and the EC50 was over 30 µM.
`COc1ccc2onc(O[C@@H]3c4cc(C#N)ccc4OC(C)(C)[C@H]3O)c2c1` [Compound 44, (3S,4R)-3-Hydroxy-4-(5-methoxy-benzo[d]isoxazol-3-yloxy)-2,2-dimethyl-chroman-6-carbonitrile] was tested, and the EC50 was 12.3 µM.
`CC1(C)Oc2ccc(Cl)cc2[C@@H](N2C(=O)CCN2c2ccccc2)[C@@H]1O` (racemic) [Compound 13, 2-(6-Chloro-3-hydroxy-2,2-dimethyl-chroman-4-yl)-1-phenyl-pyrazolidin-3-one] gave an EC50 of 3.16 µM.
`CC1(C)Oc2ccc(Cl)cc2[C@@H](n2ccnc2-c2ccccc2)[C@@H]1O` (racemic) [Compound 49, 6-Chloro-2,2-dimethyl-4-(2-phenyl-imidazol-1-yl)-chroman-3-ol] showed an EC50 of over 30 µM.
In the case of `CC1(C)C=C(Oc2nsc3cc([N+](=O)[O-])ccc23)c2cc(C#N)ccc2O1` [Compound 69, (3S,4R)-2,2-Dimethyl-R-(6-nitro-benzo[d]isothiazol-3-yloxy)-2H-chromene-6-carbonitrile], the EC50 is reported as over 30 µM.
With `CC1(C)Oc2ccncc2[C@@H](n2cncc2-c2ccc(Cl)cc2)[C@@H]1O` (racemic) [Compound 113, 4-[5-(4-Chloro-phenyl)-imidazol-1-yl]-2,2-dimethyl-3,4-dihydro-2H-pyrano[3,2-c]pyridin-3-ol] the EC50 was 13.8 µM.
Molecule `CC1(C)Oc2ccc(C#N)cc2[C@@H](Oc2noc3ccc(F)cc23)[C@@H]1O` [Compound 70, (3S,4R)-4-(5-Fluoro-benzo[d]isoxazol-3-yloxy)-3-hydroxy-2,2-dimethyl-chroman-6-carbonitrile] has an EC50 of 19.3 µM.
`CC1(C)Oc2ccc(C(=O)c3ccccc3)cc2[C@@H](Oc2noc3cc(Cl)ccc23)[C@@H]1O` [Compound 95] showed an EC50 of 20.7 µM.
`CC1(C)Oc2ccc(S(=O)(=O)c3ccc(Cl)cc3)cc2[C@@H](Oc2noc3cc(Cl)ccc23)[C@@H]1O` [Compound 101, 6-(4-Chloro-benzenesulfonyl)-4R-(6-chloro-benzo[d]isoxazol-3-yloxy)-2,2-dimethyl-chroman-3S-ol] was tested, and the EC50 was over 30 µM.
With `CC1(C)Oc2ccc(C#N)cc2[C@@H](n2ccnc2-c2ccc(Cl)cc2)[C@@H]1O` (racemic) [Compound 12, 4-[2-(4-Chloro-phenyl)-imidazol-1-yl]-3-hydroxy-2,2-dimethyl-chroman-6-carbonitrile] the EC50 was 5.7 µM.
`CC1(C)Oc2ccc(C#N)cc2[C@@H](Oc2ccc(-c3ccc(Cl)cc3)nn2)[C@@H]1O` (racemic) [Compound 56, 4-[6-(4-Chloro-phenyl)-pyridazin-3-yloxy]-3-hydroxy-2,2-dimethyl-chroman-6-carbonitrile] gave an EC50 of over 30 µM.
For `CC1(C)Oc2ccc(C#N)cc2[C@@H](Oc2ncnc3ccccc23)[C@@H]1O` [Compound 40, (3S,4R)-3-Hydroxy-2,2-dimethyl-4-(quinazolin-4-yloxy)-chroman-6-carbonitrile], the EC50 was 1.94 µM.
In the case of `CC1(C)Oc2ccc(C#N)cc2[C@@H](Oc2noc3ccc(Cl)cc23)[C@@H]1O` [Compound 38, (3S,4R)-4-(5-Chloro-benzo[d]isoxazol-3-yloxy)-3-hydroxy-2,2-dimethyl-chroman-6-carbonitrile], the EC50 is reported as 7.07 µM.
`Cc1cccc2c(=O)n([C@@H]3c4cc(C#N)ccc4OC(C)(C)[C@H]3O)oc12` [Compound 32, 3S-Hydroxy-2,2-dimethyl-4R-(7-methyl-3-oxo-3H-benzo[d]isoxazol-2-yl)-chroman-6-carbonitrile] was tested, and the EC50 was 22.6 µM.
Work on `CC1(C)Oc2ccc(C#N)cc2[C@@H](Nc2nc(=O)c3ccccc3[nH]2)[C@@H]1O` (racemic) [Compound 118, 3-Hydroxy-2,2-dimethyl-4-(4-oxo-1,4-dihydro-quinazolin-2-ylamino)-chroman-6-carbonitrile] yielded an EC50 of 7.8 µM.
For `CC1(C)Oc2ccncc2[C@@H](n2ccnc2-c2ccccc2)[C@@H]1O` (racemic) [Compound 105, 2,2-Dimethyl-4-(2-phenyl-imidazol-1-yl)-3,4-dihydro-2H-pyrano[3,2-c]pyridin-3-ol], the EC50 was over 30 µM.
In the case of `CC1(C)Oc2ccncc2[C@@H](n2ccnc2-c2ccc(Cl)cc2)[C@@H]1O` (racemic) [Compound 111, 4-[2-(4-Chloro-phenyl)-imidazol-1-yl]-2,2-dimethyl-3,4-dihydro-2H-pyrano[3,2-c]pyridin-3-ol], the EC50 is reported as over 30 µM.
`CC1(C)Oc2ccc(C#N)cc2[C@@H](SC2=NCCO2)[C@@H]1O` (stereo in doubt) [Compound 68, 4-(4,5-Dihydro-oxazol-2-ylsulfanyl)-3-hydroxy-2,2-dimethyl-chroman-6-carbonitrile] was tested, and the EC50 was 3.45 µM.
`CC1(C)Oc2ccc(Cl)cc2[C@@H](Oc2ccn(-c3ccccc3)n2)[C@@H]1O` (racemic) [Compound 60, 6-Chloro-2,2-dimethyl-4-(1-phenyl-1H-pyrazol-3-yloxy)-chroman-3-ol] showed an EC50 of over 30 µM.
`CC1(C)Oc2ccc(C#N)cc2[C@@H](S(=O)(=O)c2noc3cc(Cl)ccc23)[C@@H]1O` (racemic) [Compound 19, 4-(6-Chloro-benzo[d]isoxazole-3-sulfonyl)-3-hydroxy-2,2-dimethyl-chroman-6-carbonitrile] was tested, and the EC50 was 15.4 µM.
With `CC1(C)Oc2ccc(C#N)cc2[C@@H](Nc2nc3cc(Cl)ccc3s2)[C@@H]1O` (racemic) [Compound 1, 4-(5-Chloro-benzothiazol-2-ylamino)-3-hydroxy-2,2-dimethyl-chroman-6-carbonitrile] the EC50 was 14.6 µM.
With `CC1(C)C=C(n2c(N)nc3cc(Cl)ccc32)c2cc(C#N)ccc2O1` [Compound 45, 4-(2-Amino-5-chloro-benzoimidazol-1-yl)-2,2-dimethyl-2H-chromene-6-carbonitrile] the EC50 was over 30 µM.
Molecule `CC1(C)Oc2ccc(C#N)cc2[C@@H](Nc2nc3cc([N+](=O)[O-])ccc3s2)[C@@H]1O` (racemic) [Compound 6, 3-Hydroxy-2,2-dimethyl-4-(5-nitro-benzothiazol-2-ylamino)-chroman-6-carbonitrile] has an EC50 of 3.09 µM.
For `CC1(C)Oc2ccc(C#N)cc2[C@@H](n2oc3cc(Cl)ccc3c2=O)[C@@H]1O` [Compound 117, 4R-(6-Chloro-3-oxo-3H-benzo[d]isoxazol-2-yl)-3S-hydroxy-2,2-dimethyl-chroman-6-carbonitrile], the EC50 was over 30 µM.
For `CC1(C)Oc2ccc(C#N)cc2[C@@H](n2sc3ccccc3c2=O)[C@@H]1O` [Compound 30], the EC50 was 14.1 µM.
`CCOc1ccc2sc(N[C@@H]3c4cc(C#N)ccc4OC(C)(C)[C@H]3O)nc2c1` (racemic) [Compound 4, 4-(5-Ethoxy-benzothiazol-2-ylamino)-3-hydroxy-2,2-dimethyl-chroman-6-carbonitrile] showed an EC50 of 2.6 µM.
`N#Cc1ccc2c(c1)[C@@H](Oc1noc3cc(Cl)ccc13)[C@H](O)C1(CCS(=O)(=O)CC1)O2` [Compound 200, (3S,4R)-4-(6-Chloro-benzo[d]isoxazol-3-yloxy)-2,2-(tetrahydro-4-sulfonylpyranyl)-3-hydroxy-chroman-6-carbonitrile] gave an EC50 of 29.7 µM.
For `CC1(C)C=C(Oc2ccc(-c3ccccc3)nn2)c2cc(C#N)ccc2O1` [Compound 53, 2,2-Dimethyl-4-(6-phenyl-pyridazin-3-yloxy)-2H-chromene-6-carbonitrile], the EC50 was 9.91 µM.
